# Values of other authors in patent US7884091B2, “Methods for treating delirium using glucocorticoid receptor-specific antagonists” (Corcept Therapeutics, Inc., priority 2001, dated 2011).
# Conditions: in one study; Kawai (1989) supra
smiles,measurement,value
"CC#C[C@]1(O)CC[C@H]2[C@@H]3CCC4=CC(=O)CCC4=C3[C@@H](c3ccc(N(C)C)cc3)C[C@@]21C [mifepristone, 17-beta-hydroxy-11-beta-(4-dimethyl-aminophenyl)-17-alpha-(1-propynyl)-estra-4,9-dien-3-one]",daily dose excreted in the urine,less than 0.5%
